# Measurements: patent publication US6261814A, “Carboxylic acid reductase, and methods of using same” (University of Iowa Research Foundation, priority 1998, dated 2001)
# How the values were obtained:
# [1] = biological target: T1, carboxylic acid reductase (aryl aldehyde oxidoreductase) (Nocardia iowensis, UniProt Q6RKB1); assay: Substrate specificity of crude carboxylic acid reductase (100,000×g supernatant); assay type: biochemical, Nocardia sp. NRRL 5646; set-up: Crude enzyme preparations consisting of 100,000×g supernatants were used in this study; endogenous in cells; host or cells: Nocardia sp; NRRL 5646, crude 100,000×g supernatant
# Experimental: (§1) Enzyme assay. The standard aryl-aldehyde oxidoreductase assay solution contained 0.15 mM […], 1 mM ATP, and 5 mM sodium benzoate, 10 mM MgCl2 and 0.01 to 0.3 units of enzyme in 50 mM Tris-HCl buffer in a final volume of 0.7 ml. The reference cuvette contained all components except for benzoate. Enzyme reactions were initiated by adding enzyme, and they were monitored by recording the absorption decrease at 340 nm at 25° C. with a Shimadzu 160 spectrophotometer.
# Crude enzyme preparations consisting of 100,000×g supernatants were used in this study. […] The relative rate of reduction for each carboxylic acid derivative is expressed as the percentage of the initial rate of benzoate reduction.
# The range of oxidoreductase activities of crude, 100,000×g Nocardia extract with a variety of substrates was investigated. Various substituted 2-, 3- and 4-substituted benzoates were examined, including a range of ring-activating and ring-deactivating functional groups. Benzoates substituted with halogens, methyl, methoxy, hydroxy, acetyl, nitro, benzoyl, phenyl, and phenoxyl groups as well as aryl-ring systems containing two (naphthalene) and three (fluorene) rings, and heterocyclic aromatic acids including furoic, nicotinic and indole carboxylic acids were considered. In addition, one cinnamic acid derivative, phenyl-acetate, phenyl-malonate, phenyl-succinate and 2-phenylpropionic acid were studied.
# Nocardia sp. NRRL 5646 = assay: Induction of the enzyme by benzoate in stage two cultures; assay type: cell-based; conditions: NRRL5646, 24 h, read-out: induction of specific activity of aryl aldehyde oxidoreductase in crude extracts
# Experimental: Shaken flask cultures were grown by a standard two stage incubation protocol (Betts et al., J. Med. Chem. 17:599-602 (1974)) in 200 ml of sterile medium held in stainless steel-capped 1-liter DeLong culture flasks. The medium, containing (wt/vol) 2% glucose, 0.5% yeast extract, 0.5% soybean flour, 0.5% NaCl, and 0.5% K2 HPO4 in distilled water, was adjusted to pH 7.2 with 6 N HCl, and then autoclaved at 121° C. for 20 min. Cultures were incubated by shaking at 250 rpm at 28° C. on New Brunswick Scientific, C25 Gyrotory shakers. A 10% inoculum derived from a 72-hour first-stage culture was used to initiate the second-stage culture, which was incubated as before. […] The culture was harvested 24 hours after the addition of benzoate, the cells were collected from the medium by centrifugation at 8,000×g for 20 min., and washed twice with 0.9% NaCl. Cell pellets were stored at -38° C. until needed. Typical wet cell yields by this cultivation process were approximately 25 g/liter.
# As a result, it was determined that the specific activity of aryl aldehyde oxidoreductase in crude extracts of Nocardia sp. NRRL 5646 could be induced up to 10 fold by the addition of up to 5 mg/ml benzoate to the 24 hour, stage two cultures.
# [2] = biological target: T1, carboxylic acid reductase (aryl aldehyde oxidoreductase); assay: Kinetic properties of the purified carboxylic acid reductase (standard enzyme assay); conditions: for Vmax: purified enzyme, mean of three determinations
# Experimental: as §1
# Kinetic constants were obtained by fitting experimental data with the EZ-FIT program developed by Perrella (Perrella, Anal. Biochem. 174:437-447 (1987)).
# S(+)-α-Methyl-4-[2-methylpropyl]-benzeneacetic acid (ibuprofen) was from Aldrich Chemical Co. R(-) isomer of ibuprofen was a gift from Dr. Ching-Shih Chen, University of Rhode Island (Chen et al., Biochim. Biophys. Acta 1033:1-6 (1990)). […] Substrate enantiopurities were checked by specific rotation determination for each isomer (Chen and Rosazza, Appl. Environ. Microbiol. 60(4):1292-1296 (1994)).
# [3] = biological target: T2, oxidoreductase from Neurospora crassa (Neurospora crassa, UniProt Q7RW48); conditions: Eur. J. Biochem. 8:413 (1969); cited from earlier work
# T2 construct: host or cells: crude Neurospora crassa preparation (Eur. J. Biochem. 8:413 (1969))
# T2 sequence (Q7RW48 1-1052): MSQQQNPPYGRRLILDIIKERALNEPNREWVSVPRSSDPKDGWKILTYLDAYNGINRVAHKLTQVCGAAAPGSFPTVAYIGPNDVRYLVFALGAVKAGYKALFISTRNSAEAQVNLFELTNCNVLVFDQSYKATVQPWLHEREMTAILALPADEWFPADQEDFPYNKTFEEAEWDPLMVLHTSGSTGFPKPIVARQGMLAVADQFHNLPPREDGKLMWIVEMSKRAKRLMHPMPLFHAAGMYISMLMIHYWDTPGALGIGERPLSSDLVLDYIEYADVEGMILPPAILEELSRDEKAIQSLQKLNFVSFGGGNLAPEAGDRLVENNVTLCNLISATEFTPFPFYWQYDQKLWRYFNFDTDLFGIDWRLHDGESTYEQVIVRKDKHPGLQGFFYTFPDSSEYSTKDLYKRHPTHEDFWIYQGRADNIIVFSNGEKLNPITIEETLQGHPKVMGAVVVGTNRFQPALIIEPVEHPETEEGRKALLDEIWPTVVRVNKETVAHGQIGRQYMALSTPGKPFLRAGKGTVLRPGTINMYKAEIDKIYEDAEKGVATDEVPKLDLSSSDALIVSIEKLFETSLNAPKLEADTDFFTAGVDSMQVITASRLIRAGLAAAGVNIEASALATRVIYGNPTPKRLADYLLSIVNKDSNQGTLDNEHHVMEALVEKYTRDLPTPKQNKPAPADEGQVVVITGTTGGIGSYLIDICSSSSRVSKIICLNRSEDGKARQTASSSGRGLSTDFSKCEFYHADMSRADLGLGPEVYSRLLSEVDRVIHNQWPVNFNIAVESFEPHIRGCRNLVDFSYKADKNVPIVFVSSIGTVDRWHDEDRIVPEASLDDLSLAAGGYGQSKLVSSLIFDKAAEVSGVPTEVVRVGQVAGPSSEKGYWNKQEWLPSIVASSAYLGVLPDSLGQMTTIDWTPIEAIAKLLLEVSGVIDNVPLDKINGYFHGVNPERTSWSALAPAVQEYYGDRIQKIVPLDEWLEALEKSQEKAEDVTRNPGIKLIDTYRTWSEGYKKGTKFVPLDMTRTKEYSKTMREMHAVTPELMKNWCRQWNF
# T1 sequence (Q6RKB1 whole entry): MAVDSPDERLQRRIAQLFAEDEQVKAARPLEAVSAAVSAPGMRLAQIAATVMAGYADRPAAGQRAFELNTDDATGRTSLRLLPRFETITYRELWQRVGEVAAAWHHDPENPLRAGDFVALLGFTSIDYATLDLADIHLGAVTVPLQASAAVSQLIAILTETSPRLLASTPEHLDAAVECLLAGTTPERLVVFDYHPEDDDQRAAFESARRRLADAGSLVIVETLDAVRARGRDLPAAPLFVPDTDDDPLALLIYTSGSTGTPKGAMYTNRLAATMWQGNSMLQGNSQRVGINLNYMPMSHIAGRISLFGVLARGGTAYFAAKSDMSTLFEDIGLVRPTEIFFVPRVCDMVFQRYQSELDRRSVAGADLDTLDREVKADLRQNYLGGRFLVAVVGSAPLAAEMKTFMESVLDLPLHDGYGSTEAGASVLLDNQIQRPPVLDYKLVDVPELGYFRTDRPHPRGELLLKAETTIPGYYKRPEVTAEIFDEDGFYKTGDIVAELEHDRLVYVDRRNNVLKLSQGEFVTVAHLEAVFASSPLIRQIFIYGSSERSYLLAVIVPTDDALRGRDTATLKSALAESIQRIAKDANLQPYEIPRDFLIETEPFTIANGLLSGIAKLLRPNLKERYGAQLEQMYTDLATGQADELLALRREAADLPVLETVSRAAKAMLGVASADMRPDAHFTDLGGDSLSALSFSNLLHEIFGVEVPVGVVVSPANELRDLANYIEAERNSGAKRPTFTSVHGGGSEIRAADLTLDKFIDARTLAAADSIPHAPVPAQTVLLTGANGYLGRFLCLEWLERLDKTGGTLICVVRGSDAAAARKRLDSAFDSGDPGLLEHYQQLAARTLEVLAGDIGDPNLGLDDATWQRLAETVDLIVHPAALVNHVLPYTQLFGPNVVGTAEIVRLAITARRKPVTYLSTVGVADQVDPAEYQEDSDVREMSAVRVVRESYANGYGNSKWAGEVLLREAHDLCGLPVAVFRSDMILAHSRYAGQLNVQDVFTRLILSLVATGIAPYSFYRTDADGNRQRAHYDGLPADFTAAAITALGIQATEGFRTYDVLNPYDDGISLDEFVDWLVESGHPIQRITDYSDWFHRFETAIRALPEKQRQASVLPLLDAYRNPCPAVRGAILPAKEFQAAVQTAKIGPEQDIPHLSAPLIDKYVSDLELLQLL
smiles,measurement,setting,value
O=C(O)c1ccccc1 [benzoic acid],Relative Activity,"[1]; 5 mM substrate, 0.15 mM NADPH, 1 mM ATP, 50 mM Tris-HCl pH 7.5, percentage of the initial rate of benzoate reduction",100 percentage
same,quality as substrate of the enzyme (in words),[1]; substrates of Table 2,best substrates
same,rate of benzoate reduction,"[1]; typical, crude enzyme, 5 mM",0.066 ΔA340 /min
same,rate of benzoate reduction (equivalent),"[1]; typical, crude enzyme, 5 mM",10.6 µM/min
same,fold induction at 5000 µg/mL,Nocardia sp. NRRL 5646,≤ 10
same,inhibition of the enzyme by benzoate,[2]; benzoate concentration up to 2 mM,no inhibition was observed
same,apparent Km relative to Km reported for the enzyme from Nocardia asteroides,[2]; higher than values reported by Kato et al.,more than 1000 fold
same,turnover number,[2]; pseudo-first order reaction conditions,126 min⁻¹
same,Vmax,[2],0.902 ± 0.04 μmol/min/mg of protein
same,Vmax,[2]; listed as benzoate,0.902±0.04 μmol/min/mg of protein
same,Km,[3],63 µM
same,benzoate concentration at which activity is inhibited,[3],300 µM
